Data from paper PMC4911353, “Pharmacologic Inhibition of Host Phosphodiesterase-4 Improves Isoniazid-Mediated Clearance of Mycobacterium tuberculosis” (Frontiers in Immunology, 2016).

Test system: Mtb-infected mouse lungs
Assay: Genome-wide lung transcriptome (microarray, IPA network/GO analysis) of Mtb-infected mice
Format: in vivo
[1] = Canonical IFN signaling pathway

CCOc1cc([C@@H](CS(C)(=O)=O)N2Cc3cccc(NC(=O)C4CC4)c3C2=O)ccc1OC [CC-11050, N-[2-[(1S)-1-(3-ethoxy-4-methoxyphenyl)-2-(methylsulfonyl)ethyl]-2,3-dihydro-3-oxo-1H-isoindol-4-yl]-(9Cl) cyclopropanecarboxamide]
Number of SDEGs affected by more than 1.5-folds (14 days of treatment (29 upregulated and 18 downregulated)): 47
Number of SDEGs relative to infected untreated animals (14 days of treatment, FDR 5%): 1,277
BAK expression [1]: 0
BAX expression [1]: 0
DRIP150 expression [1]: 0
IFI35 expression [1]: 0
IFIT3 expression [1]: 0
IFNAR2 expression [1]: 0
IFNG expression [1]: 0
IFNGRb expression [1]: -1.115
IRF1 expression [1]: 0
IRF9 expression [1]: 0
JAK2 expression [1]: 0
OAS1 expression [1]: 0
PIAS1 expression [1]: 0
PSMB8 expression [1]: 0
SOCS1 expression [1]: 0
STAT1 expression [1]: 0
STAT2 expression [1]: 0
TAP1 expression [1]: 0
TC-PTP expression [1]: 0
TYK2 expression [1]: 0
ACTB expression (IL17 interaction network): 0
CCL2 expression (IL17 interaction network): 0
CCL5 expression (IL17 interaction network): 0
CCL13 expression (IL17 interaction network): 0
CSF2 expression (IL17 interaction network): 0
EDIL3 expression (IL17 interaction network): 0
ENTPD1 expression (IL17 interaction network): 1.149
HMGB1 expression (IL17 interaction network): -1.135
HSPB8 expression (IL17 interaction network): 1.322
IFNG expression (IL17 interaction network): 0
IL1B expression (IL17 interaction network): 0
IL6 expression (IL17 interaction network): 0
IL10 expression (IL17 interaction network): 0
IL16 expression (IL17 interaction network): 0
IL17A expression (IL17 interaction network): 0
IL17D expression (IL17 interaction network): 0
IL17F expression (IL17 interaction network): -1.184
LTA expression (IL17 interaction network): 0
MMP9 expression (IL17 interaction network): 0
NOS2 expression (IL17 interaction network): 0
PTGS2 expression (IL17 interaction network): 0
RGS13 expression (IL17 interaction network): 0
SELE expression (IL17 interaction network): 0
STAT3 expression (IL17 interaction network): 0
TIMP1 expression (IL17 interaction network): 0
TLR4 expression (IL17 interaction network): 0
TNF expression (IL17 interaction network): 0
TRAF3IP2 expression (IL17 interaction network): 0
TRAF6 expression (IL17 interaction network): 0
VWF expression (IL17 interaction network): 0
ABL1 expression (Lung inflammation network): 0
ACO2 expression (Lung inflammation network): 0
ACTB expression (Lung inflammation network): 0
ADORA2A expression (Lung inflammation network): 0
AGER expression (Lung inflammation network): 0
AGTR1 expression (Lung inflammation network): 0
AHR expression (Lung inflammation network): 0
ALDH2 expression (Lung inflammation network): 0
ANGPT1 expression (Lung inflammation network): 0
ANXA3 expression (Lung inflammation network): 0
ATF3 expression (Lung inflammation network): 0
BAX expression (Lung inflammation network): 0
BID expression (Lung inflammation network): 0
BSG expression (Lung inflammation network): 0
CASP1 expression (Lung inflammation network): 0
CAV1 expression (Lung inflammation network): 0
CBL expression (Lung inflammation network): 0
CCL2 expression (Lung inflammation network): 0
CCL5 expression (Lung inflammation network): 0
CCR4 expression (Lung inflammation network): 0
CCR5 expression (Lung inflammation network): 0
CD4 expression (Lung inflammation network): 0
CD14 expression (Lung inflammation network): 0
CD40LG expression (Lung inflammation network): 0
CD44 expression (Lung inflammation network): 0
CD86 expression (Lung inflammation network): 0
CD200 expression (Lung inflammation network): 0
CIITA expression (Lung inflammation network): 0
CSF2RB expression (Lung inflammation network): 0
CSF2 expression (Lung inflammation network): 0
CSK expression (Lung inflammation network): 0
CTLA4 expression (Lung inflammation network): 0
CTSS expression (Lung inflammation network): 0
CXCR3 expression (Lung inflammation network): 0
CYBB expression (Lung inflammation network): 0
CYLD expression (Lung inflammation network): 0
Ccl6 expression (Lung inflammation network): 0
Cd59a expression (Lung inflammation network): 0
Cxcl15 expression (Lung inflammation network): 0
E2F3 expression (Lung inflammation network): -1.343
EDNRA expression (Lung inflammation network): 0
EDNRB expression (Lung inflammation network): 1.235
EIF2C2 expression (Lung inflammation network): 0
ENTPD1 expression (Lung inflammation network): 1.149
F2RL1 expression (Lung inflammation network): 0
F10 expression (Lung inflammation network): 0
FASLG expression (Lung inflammation network): 0
FBN1 expression (Lung inflammation network): 0
FCGR2B expression (Lung inflammation network): 0
FCGRT expression (Lung inflammation network): 1.165
FOXO3 expression (Lung inflammation network): 1.609
HMGCR expression (Lung inflammation network): 0
HRH1 expression (Lung inflammation network): 0
HTT expression (Lung inflammation network): 0
IFNG expression (Lung inflammation network): 0
IFNGR2 expression (Lung inflammation network): -1.115
IKBKB expression (Lung inflammation network): 0
IKBKE expression (Lung inflammation network): 0
IL1B expression (Lung inflammation network): 0
IL1R1 expression (Lung inflammation network): 0
IL2RG expression (Lung inflammation network): 0
IL4R expression (Lung inflammation network): 0
IL6 expression (Lung inflammation network): 0
IL10 expression (Lung inflammation network): 0
IL12B expression (Lung inflammation network): 0
IL15RA expression (Lung inflammation network): 0
IL16 expression (Lung inflammation network): 0
IL17RB expression (Lung inflammation network): 0
IL18 expression (Lung inflammation network): 0
ITGB6 expression (Lung inflammation network): 0
ITGBL1 expression (Lung inflammation network): 0
ITK expression (Lung inflammation network): 0
KIT expression (Lung inflammation network): 0
LAT expression (Lung inflammation network): 0
LCP2 expression (Lung inflammation network): 0
LGALS1 expression (Lung inflammation network): 0
LIF expression (Lung inflammation network): -1.187
LTA expression (Lung inflammation network): 0
MAP3K14 expression (Lung inflammation network): 0
MARK2 expression (Lung inflammation network): 0
MGAT5 expression (Lung inflammation network): 0
MKL2 expression (Lung inflammation network): 0
MMP9 expression (Lung inflammation network): 0
MMP14 expression (Lung inflammation network): 0
NCF1 expression (Lung inflammation network): 0
NEO1 expression (Lung inflammation network): 0
NFATC2 expression (Lung inflammation network): 0
NFKB1 expression (Lung inflammation network): 0
NLRP3 expression (Lung inflammation network): 0
NOD1 expression (Lung inflammation network): 0
NOD2 expression (Lung inflammation network): 0
NOS2 expression (Lung inflammation network): 0
NQO1 expression (Lung inflammation network): 0
NQO2 expression (Lung inflammation network): 0
NT5E expression (Lung inflammation network): 0
PDE5A expression (Lung inflammation network): 0
PDGFRA expression (Lung inflammation network): 0
PDGFRB expression (Lung inflammation network): 0
PLA2G4A expression (Lung inflammation network): 0
PLAU expression (Lung inflammation network): 0
PTAFR expression (Lung inflammation network): 0
PTEN expression (Lung inflammation network): 1.12
PTGS2 expression (Lung inflammation network): 0
PTPN6 expression (Lung inflammation network): 0
PTPRC expression (Lung inflammation network): 0
RELB expression (Lung inflammation network): 0
S100A4 expression (Lung inflammation network): 0
SELE expression (Lung inflammation network): 0
SFTPA1 expression (Lung inflammation network): 1.126
SFTPD expression (Lung inflammation network): 0
SLC6A2 expression (Lung inflammation network): 0
SOCS1 expression (Lung inflammation network): 0
SPI1 expression (Lung inflammation network): 0
SPP1 expression (Lung inflammation network): 0
STAT1 expression (Lung inflammation network): 0
TFPI expression (Lung inflammation network): 1.241
